Source: patent US20090131483A1, “2-PYRIDINE DERIVATIVES AS INHIBITORS OF NEUTROPHILE ELASTASE” (priority 2005, published 2009)

These compounds were tested against T1, Human Neutrophil Elastase (HNE) (Homo sapiens, UniProt P08246) (assay: Human Neutrophil Elastase Quenched-FRET Assay). Conditions: HNE purified from serum 1.7 nM, substrate MeOSuc-AAPV-AMC 100 μM, pH 7.5, 15 min pre-incubation, 30 min incubation at room temperature; read-out: Inhibition of Human Neutrophil Elastase IC50.
T1 construct: Human Neutrophil Elastase (HNE) purified from serum; purchased Calbiochem 324681; host or cells: purified from serum (so in the source)
T1 sequence (P08246 30-267): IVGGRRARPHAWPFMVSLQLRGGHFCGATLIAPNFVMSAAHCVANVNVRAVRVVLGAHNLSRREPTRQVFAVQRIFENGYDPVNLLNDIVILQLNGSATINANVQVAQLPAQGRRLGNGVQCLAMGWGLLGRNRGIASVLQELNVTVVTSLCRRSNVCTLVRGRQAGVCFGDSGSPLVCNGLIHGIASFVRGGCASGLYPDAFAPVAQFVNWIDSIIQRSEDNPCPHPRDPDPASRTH
Type: biochemical
Procedure: Human Neutrophil Elastase Quenched-FRET Assay
The assay uses Human Neutrophil Elastase (HNE) purified from serum (Calbiochem art. 324681; Ref. Baugh, R. J. et al., 1976, Biochemistry. 15, 836-841). H was stored in 50 mM sodium acetate (NaOAc), 200 mM sodium chloride (NaCl), pH 5.5 with added 30% glycerol at −20° C. The protease substrate used was Elastase Substrate V Fluorogenic, MeOSuc-AAPV-AMC (Calbiochem art. 324740; Ref. Castillo, M. J. et al., 1979, Anal. Biochem. 99, 53-64). The substrate was stored in dimethyl sulphoxide (DMSO) at −20° C. The assay additions were as follows: Test compounds and controls were added to black 96-well flat-bottom plates (Greiner 655076), 1 μL in 100% DMSO, followed by 30 μL HNE in assay buffer with 0.01% Triton (trade mark) X-100 detergent. The assay buffer constitution was: 100 mM Tris(hydroxymethyl)aminomethane (TRIS) (pH 7.5) and 500 mM NaCl. The enzyme and the compounds were incubated at room temperature for 15 minutes. Then 30 μl substrate in assay buffer was added. The assay was incubated for 30 minutes at room temperature. The concentrations of HNE enzyme and substrate during the incubation were 1.7 nM and 100 μM, respectively. The assay was then stopped by adding 60 μl stop solution (140 mM acetic acid, 200 mM sodium monochloroacetate, 60 mM sodium acetate, pH 4.3). Fluorescence was measured on a Wallac 1420 Victor 2 instrument at settings: Excitation 380 nm, Emission 460 nm. IC50 values were determined using Xlfit curve fitting using model 205.

| SMILES | IC50 [nM] |
| --- | --- |
| Cc1c(-c2ccnn2C)cc(C(=O)NCc2cc(CO)no2)c(=O)n1-c1cccc(C(F)(F)F)c1 [Example 4, N-{[3-(Hydroxymethyl)isoxazol-5-yl]methyl}-6-methyl-5-(1-methyl-1H-pyrazol-5-yl)-2-oxo-1-[3-(trifluoromethyl)phenyl]1,2-dihydropyridine-3-carboxamide] | 31 |
| CCc1cc(C(=O)NCc2cc(CO)no2)c(=O)n(-c2cccc(C(F)(F)F)c2)c1C [Example 6, 5-Ethyl-N-{[3-(hydroxymethyl)isoxazol-5-yl]methyl}-6-methyl-2-oxo-1-[3-(trifluoromethyl)phenyl]-1,2-dihydropyridine-3-carboxamide] | 45 |
| Cc1c(C2CC2)cc(C(=O)NCc2cc(CO)no2)c(=O)n1-c1cccc(C(F)(F)F)c1 [Example 7, 5-Cyclopropyl-N-{[3-(hydroxymethyl)isoxazol-5-yl]methyl}-6-methyl-2-oxo-1-[3-(trifluoromethyl)phenyl]-1,2-dihydropyridine-3-carboxamide] | 48 |
| Cc1c(C#CCO)cc(C(=O)NCc2ccc(S(C)(=O)=O)cc2)c(=O)n1-c1cccc(C(F)(F)F)c1 [Example 20, 5-(3-Hydroxyprop-1-yn-1-yl)-6-methyl-N-[4-(methylsulfonyl)benzyl]-2-oxo-1-[3-(trifluoromethyl)phenyl]-1,2-dihydropyridine-3-carboxamide] | 23 |
| Cc1c(CS(C)(=O)=O)cc(C(=O)NCc2ccc(S(=O)(=O)C3CC3)cc2)c(=O)n1-c1cccc(C(F)(F)F)c1 [Example 23, N-[4-(Cyclopropylsulfonyl)benzyl]-6-methyl-5-[(methylsulfonyl)methyl]-2-oxo-1-[3-(trifluoromethyl)phenyl]-1,2-dihydropyridine-3-carboxamide] | 61 |
